Data from paper PMC2891302 (Bioconjugate chemistry, 2009).

Assays:
[1] = target: T1, hA1 AR (Homo sapiens, UniProt P30542); assay: Radioligand binding at hA1 AR
T1 sequence (P30542 1-326): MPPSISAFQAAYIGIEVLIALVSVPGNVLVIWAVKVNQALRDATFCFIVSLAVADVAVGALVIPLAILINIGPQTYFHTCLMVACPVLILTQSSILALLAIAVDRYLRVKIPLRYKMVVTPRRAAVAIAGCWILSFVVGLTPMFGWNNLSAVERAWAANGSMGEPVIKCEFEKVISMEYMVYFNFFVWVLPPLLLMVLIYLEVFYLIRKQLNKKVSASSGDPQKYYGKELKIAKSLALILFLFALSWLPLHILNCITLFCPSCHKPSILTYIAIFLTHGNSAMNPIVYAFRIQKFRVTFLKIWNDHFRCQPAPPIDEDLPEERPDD

[2] = target: T2, hA3 AR (Homo sapiens, UniProt P0DMS8); assay: Radioligand binding at hA3 AR
T2 sequence (P0DMS8 1-318): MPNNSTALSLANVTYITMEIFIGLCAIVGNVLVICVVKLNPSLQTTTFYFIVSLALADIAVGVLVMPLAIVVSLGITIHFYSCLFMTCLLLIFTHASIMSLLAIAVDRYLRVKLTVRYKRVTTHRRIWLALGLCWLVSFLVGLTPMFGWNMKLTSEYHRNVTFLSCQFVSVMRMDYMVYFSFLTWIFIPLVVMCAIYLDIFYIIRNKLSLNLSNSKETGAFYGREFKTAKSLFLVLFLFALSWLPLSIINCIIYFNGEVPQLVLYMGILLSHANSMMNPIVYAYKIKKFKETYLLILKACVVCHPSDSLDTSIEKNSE

[3] = tested on: human washed platelets; assay: Inhibition of ADP-induced aggregation of human washed platelets; type: cell-based; settings: Platelet, read-out: IC50, inhibition of platelet aggregation
[4] = target: T3, hA2B AR (Homo sapiens, UniProt P29275); assay: Cyclic AMP accumulation assay, CHO cells expressing hA2B AR; type: cell-based; settings: at 10 μM, in comparison to full agonist NECA (100%)
T3 sequence (P29275 1-332): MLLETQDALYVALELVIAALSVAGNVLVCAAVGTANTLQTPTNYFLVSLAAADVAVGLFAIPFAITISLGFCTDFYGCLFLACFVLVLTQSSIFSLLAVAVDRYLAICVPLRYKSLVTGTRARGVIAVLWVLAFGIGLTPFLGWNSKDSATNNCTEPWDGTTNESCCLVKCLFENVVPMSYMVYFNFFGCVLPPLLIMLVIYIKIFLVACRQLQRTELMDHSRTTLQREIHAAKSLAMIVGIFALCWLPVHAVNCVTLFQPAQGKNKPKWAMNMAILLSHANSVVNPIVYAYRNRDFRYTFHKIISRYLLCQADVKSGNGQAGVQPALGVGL

[5] = inhibition of radioligand binding at 1 μM

Compound	inhibition at 1 µM ([1]; read-out: hA1 % inhibition) [%]	inhibition at 1 µM ([2]; read-out: hA3 % inhibition) [%]	IC50 [3] [µM]	hA1 % inhibition [1, 5] [%]	hA3 % inhibition [2, 5] [%]	hA2B % activation of adenylate cyclase [4] [%]
CCNC(=O)[C@H]1O[C@@H](n2cnc3c(N)nc(NCCc4ccc(CCC(=O)O)cc4)nc32)[C@H](O)[C@@H]1O [compound 1, 2-[4-(2-carboxylethyl)phenylethylamino]-5′-N-ethylcarboxamidoadenosine, reference compound]	24.9 ± 4.6	59.8 ± 4.4	0.192 ± 0.09	–	–	–
CCNC(=O)[C@H]1O[C@@H](n2cnc3c(N)nc(NCCc4ccc(CCC(=O)NCCN)cc4)nc32)[C@H](O)[C@@H]1O [compound 2, 2-[4-(2-Aminoethylaminocarbonylethyl)phenylethylamino]-5′-N-ethylcarboxamidoadenosine, reference compound]	–	–	–	56.9 ± 9.1	85.3 ± 3.2	5.5 ± 4.7
